Our source for the IC50, AC50 and CC50 values is ChEMBL document CHEMBL1201862, “PubChem BioAssay data set” (2004).

Assay [1] concerns the target Estrogen receptor beta (Homo sapiens, UniProt Q92731).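 Further: recombinant ER-beta bound to coactivator SRC1 peptide in presence of estradiol agonist; inhibitors block coactivator peptide binding and lower the FRET signal.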
The nature of assay [2]: Luminescence Cell-Based Dose Retest to Confirm Inhibitors of Cancer Stem Cells. [Related pubchem assays (depositor defined):AID2717, AID2721]. The format is functional. As to conditions: Homo sapiens.
Assay [3] is described as follows: microbe, parasite or virus in culture. The format is functional. As to conditions: Mycobacterium tuberculosis.
Assay [4] deals with T1, Apoptotic protease-activating factor 1 (Homo sapiens, UniProt O14727).
T1 sequence (O14727 whole entry): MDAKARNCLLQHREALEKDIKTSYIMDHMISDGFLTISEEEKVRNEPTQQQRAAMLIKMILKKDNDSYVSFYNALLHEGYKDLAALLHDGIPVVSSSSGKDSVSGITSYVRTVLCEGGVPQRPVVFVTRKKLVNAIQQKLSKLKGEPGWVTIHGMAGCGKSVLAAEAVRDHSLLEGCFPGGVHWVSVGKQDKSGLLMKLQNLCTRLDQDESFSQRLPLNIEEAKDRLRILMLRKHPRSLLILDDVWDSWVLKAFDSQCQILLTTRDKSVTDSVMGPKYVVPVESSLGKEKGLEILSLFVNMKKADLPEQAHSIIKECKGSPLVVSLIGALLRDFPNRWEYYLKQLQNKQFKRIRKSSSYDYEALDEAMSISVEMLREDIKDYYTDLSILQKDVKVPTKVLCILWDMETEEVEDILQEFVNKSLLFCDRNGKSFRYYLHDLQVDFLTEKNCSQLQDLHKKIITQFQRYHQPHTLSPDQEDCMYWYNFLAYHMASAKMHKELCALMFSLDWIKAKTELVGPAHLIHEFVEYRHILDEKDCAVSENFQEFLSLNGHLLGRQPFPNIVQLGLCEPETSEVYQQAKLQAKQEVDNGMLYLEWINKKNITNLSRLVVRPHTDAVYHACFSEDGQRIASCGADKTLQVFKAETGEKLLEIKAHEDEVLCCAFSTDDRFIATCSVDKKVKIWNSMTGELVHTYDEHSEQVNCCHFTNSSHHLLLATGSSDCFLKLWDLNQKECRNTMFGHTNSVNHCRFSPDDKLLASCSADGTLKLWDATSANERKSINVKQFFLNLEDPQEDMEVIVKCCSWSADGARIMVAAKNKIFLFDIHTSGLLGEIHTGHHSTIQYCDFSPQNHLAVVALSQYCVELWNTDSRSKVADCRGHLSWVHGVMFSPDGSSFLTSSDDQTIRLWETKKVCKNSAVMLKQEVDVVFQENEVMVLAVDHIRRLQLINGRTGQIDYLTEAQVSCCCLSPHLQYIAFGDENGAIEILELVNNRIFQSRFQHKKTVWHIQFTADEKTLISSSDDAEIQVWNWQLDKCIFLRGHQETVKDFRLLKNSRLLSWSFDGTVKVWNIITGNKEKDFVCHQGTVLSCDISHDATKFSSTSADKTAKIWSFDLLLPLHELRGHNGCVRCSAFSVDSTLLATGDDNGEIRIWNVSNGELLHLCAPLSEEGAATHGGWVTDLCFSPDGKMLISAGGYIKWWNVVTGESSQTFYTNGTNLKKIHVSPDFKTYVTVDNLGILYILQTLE
The format is functional.

For assay [5], the target named is Paired box protein Pax-8 (Homo sapiens, UniProt Q06710). In words: inhibitors of PAX8-driven TPO luciferase reporter, dose response, RMG-I cells, cherry-pick (AID 687027).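 Further: luciferase reporter driven by Pax8 target thyroperoxidase promoter measured by SteadyGlo luminescence.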 In kind it is functional, cell-based.
Chain of Paired box protein Pax-8 (Q06710 whole entry): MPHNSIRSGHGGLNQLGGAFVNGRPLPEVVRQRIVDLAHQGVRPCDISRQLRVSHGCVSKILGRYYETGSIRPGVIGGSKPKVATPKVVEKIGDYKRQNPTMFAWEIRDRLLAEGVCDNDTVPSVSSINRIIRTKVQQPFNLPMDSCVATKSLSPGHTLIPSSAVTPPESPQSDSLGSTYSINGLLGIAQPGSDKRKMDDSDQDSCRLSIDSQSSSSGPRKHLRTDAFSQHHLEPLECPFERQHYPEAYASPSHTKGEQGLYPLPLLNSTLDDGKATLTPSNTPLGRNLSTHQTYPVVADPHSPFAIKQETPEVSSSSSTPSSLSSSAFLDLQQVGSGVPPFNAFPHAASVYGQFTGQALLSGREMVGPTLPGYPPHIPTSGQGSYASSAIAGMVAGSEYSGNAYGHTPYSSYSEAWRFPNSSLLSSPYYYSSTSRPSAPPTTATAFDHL
Assay [6] has as its target T2, Histone-lysine N-methyltransferase NSD2 (Homo sapiens, UniProt O96028).
T2 sequence (O96028 whole entry): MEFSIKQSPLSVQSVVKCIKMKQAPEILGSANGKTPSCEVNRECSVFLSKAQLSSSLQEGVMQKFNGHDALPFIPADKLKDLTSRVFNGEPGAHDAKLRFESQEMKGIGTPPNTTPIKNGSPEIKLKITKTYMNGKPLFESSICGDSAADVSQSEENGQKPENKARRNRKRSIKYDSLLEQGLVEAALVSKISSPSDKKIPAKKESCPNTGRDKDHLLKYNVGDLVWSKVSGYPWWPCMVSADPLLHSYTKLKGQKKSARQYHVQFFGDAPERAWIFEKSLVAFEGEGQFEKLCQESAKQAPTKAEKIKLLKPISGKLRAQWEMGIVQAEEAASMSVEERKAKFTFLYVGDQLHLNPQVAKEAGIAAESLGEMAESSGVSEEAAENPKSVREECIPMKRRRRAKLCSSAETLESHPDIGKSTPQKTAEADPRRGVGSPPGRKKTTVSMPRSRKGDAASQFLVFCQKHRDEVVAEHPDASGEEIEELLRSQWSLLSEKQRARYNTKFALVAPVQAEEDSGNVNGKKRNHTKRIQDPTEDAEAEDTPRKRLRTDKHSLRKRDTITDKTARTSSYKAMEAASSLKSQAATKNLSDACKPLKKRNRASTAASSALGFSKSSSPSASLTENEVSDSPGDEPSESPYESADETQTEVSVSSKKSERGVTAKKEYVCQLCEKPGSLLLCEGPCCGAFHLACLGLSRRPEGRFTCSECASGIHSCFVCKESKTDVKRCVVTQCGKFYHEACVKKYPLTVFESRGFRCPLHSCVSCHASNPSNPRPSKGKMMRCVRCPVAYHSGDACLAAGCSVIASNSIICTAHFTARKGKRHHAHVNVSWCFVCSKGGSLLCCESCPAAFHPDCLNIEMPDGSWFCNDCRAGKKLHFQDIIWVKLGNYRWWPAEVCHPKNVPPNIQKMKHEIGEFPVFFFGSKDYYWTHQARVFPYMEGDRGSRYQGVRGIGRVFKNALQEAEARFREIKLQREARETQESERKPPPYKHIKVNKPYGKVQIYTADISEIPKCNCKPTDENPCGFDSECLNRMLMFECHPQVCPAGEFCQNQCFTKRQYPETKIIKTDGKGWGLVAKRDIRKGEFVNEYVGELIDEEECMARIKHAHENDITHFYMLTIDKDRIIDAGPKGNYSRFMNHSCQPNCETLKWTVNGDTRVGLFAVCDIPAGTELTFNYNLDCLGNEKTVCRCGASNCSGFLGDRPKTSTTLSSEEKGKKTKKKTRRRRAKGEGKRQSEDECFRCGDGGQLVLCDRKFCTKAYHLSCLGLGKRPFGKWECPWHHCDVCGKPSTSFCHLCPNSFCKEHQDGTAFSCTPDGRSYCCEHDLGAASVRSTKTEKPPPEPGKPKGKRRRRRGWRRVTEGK
The format is biochemical.

Assay [7] deals with INS1. Description: beta cell apoptosis inhibitors, cytokine rescue, dose response, luminescence, retest (AID 449756).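 Further: cell death triggered by IL-1 beta plus TNF-alpha plus IFN-gamma mixture; protective hits raise ATP signal compared with cytokine alone wells.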 In kind it is functional, cell-based. As to conditions: Rattus norvegicus.
The nature of assay [8]: NIH:OVCAR-3 ovarian cancer cell cytotoxicity, dose response, PAX8 inhibitor project, plate reader, dry powder samples (AID 743044). In kind it is functional, cell-based.
Assay [9] in a line: P. falciparum Dd2 growth inhibitors, dose response, SYBR Green, cherry-picked samples (AID 1159567). The format is functional, cell-based.
The nature of assay [10]: HepG2 cell cytotoxicity, dose response, cytotoxicity control, cherry-picked samples (AID 1159577). In kind it is functional, cell-based.
Assay [11] can be described thus: P. falciparum Dd2 growth inhibitors, dose response, SYBR Green, dry powder samples, set 9 (AID 1159568). The format is functional, cell-based.
Assay [12] can be described thus: P. falciparum 3D7-ScDHODH growth inhibitors, dose response, SYBR Green, dry powder samples (AID 1159570).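 Further: parasite growth measured after 72 hours of compound exposure.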 The format is functional, cell-based.
A short description of assay [13]: P. falciparum ATP4 D1247Y mutant growth inhibitors, dose response, NITD609-resistant line, SYBR Green, dry powder (AID 1159571).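 Further: parasites synchronized at ring stage by sorbitol before testing.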 In kind it is functional, cell-based.
The nature of assay [14]: P. falciparum Dd2 growth inhibitors, dose response, SYBR Green, dry powder samples (AID 1159566).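 Further: potency for growth inhibition with lower SYBR green DNA signal.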 The format is functional, cell-based.

Calls of active or inactive are those of the source.

Chain of Estrogen receptor beta (Q92731 whole entry): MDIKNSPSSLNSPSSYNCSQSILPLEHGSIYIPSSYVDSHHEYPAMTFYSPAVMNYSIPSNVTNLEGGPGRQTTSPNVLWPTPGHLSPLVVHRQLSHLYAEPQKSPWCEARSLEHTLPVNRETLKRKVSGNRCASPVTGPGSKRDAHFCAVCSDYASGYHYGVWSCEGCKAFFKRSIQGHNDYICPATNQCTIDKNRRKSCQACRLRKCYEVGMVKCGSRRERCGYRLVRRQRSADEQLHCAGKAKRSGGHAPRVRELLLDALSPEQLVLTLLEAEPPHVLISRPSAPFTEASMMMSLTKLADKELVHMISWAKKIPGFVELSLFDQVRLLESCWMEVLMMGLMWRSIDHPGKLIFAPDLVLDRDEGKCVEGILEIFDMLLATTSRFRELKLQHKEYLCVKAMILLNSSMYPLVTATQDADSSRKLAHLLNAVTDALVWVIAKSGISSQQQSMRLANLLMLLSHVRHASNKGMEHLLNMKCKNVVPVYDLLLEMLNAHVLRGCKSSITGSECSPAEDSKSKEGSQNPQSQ

With `COc1ccc(C(C(=O)NC2CCCC2)N(C(=O)c2ccco2)c2ccc3c(c2)OCO3)cc1OC` (stereo unspecified), the half-maximal inhibitory concentration (IC50) in [1] is given as > 50 µM (not active).
Take `CCCCOC(=O)c1c(C)oc2ccc(NS(=O)(=O)c3ccc4c5c(cccc35)C(=O)N4)cc12`: the AC50 in assay [2] is 9.4 µM (active). For the same molecule, in assay [1], the IC50 is 13.5 µM (active). Moreover, the CC50 in assay [3] is > 40 µM (active).
On to `COCCN1C=C2C(=O)C(C)(OC(=O)CCC(=O)OC)C(=O)C(Br)=C2C=C1c1ccc(OC)cc1` (stereo unspecified), for which the half-maximal inhibitory concentration (IC50) in assay [4] is 11 µM (active).
As to `CCCCn1c(N)c(N(CCC(C)C)C(=O)COC(=O)c2ccc([N+](=O)[O-])s2)c(=O)[nH]c1=O`, the concentration at half-maximal activity (AC50) in [5] was 8.14 µM (active); in assay [6], 12.3 µM (active).
`CCCCn1cc[n+](C2=C([N-]S(=O)(=O)c3ccc(Br)cc3)C(=O)c3ccccc3C2=O)c1`: the AC50 in [7] is 2.86 µM (active). The IC50 in assay [4] is 8.28 µM (active).
In the case of `CC(C)Cn1c(-c2cccs2)nc2ccccc21`, the half-inhibitory concentration (IC50) in [1] is recorded as > 50 µM (not active).
As to `CCN(CC)CCNC(=O)c1ccc(CS(=O)(=O)c2ccccc2C)o1`, in assay [6], the AC50 was > 20 µM (inactive).
Take `CCOc1ccc(NC(=O)CN(C)C(=O)c2ccc(COc3ccccc3)cc2)cc1OCC`: the IC50 in assay [4] was > 100 µM (inactive).
For the molecule `N#Cc1ccc(-c2ccc([C@@H]3[C@@H]4CN(C(=O)c5ccc6c(c5)OCO6)C[C@H]3N4)cc2)cc1`, the concentration at half-maximal activity (AC50) was 29.1 µM (active) in assay [8] and 8.39 µM (active) in [5].
Take `O=C(Cc1cccnc1)N1CCCCN2[C@H](C1)[C@H](c1ccc(C#CC3CCCC3)cc1)[C@@H]2CO`: the AC50 in assay [8] is 9.02 µM (active); in assay [5], 5.07 µM (active).
For the molecule `CC(C)N(C[C@H]1N[C@H](CO)[C@@H]1c1ccc(C2=CCCCC2)cc1)C(=O)CN(C)C`, the concentration at half-maximal activity (AC50) in [9] is 1.34 µM (active); in [10], 10.8 µM (active).
Take `O=C(Nc1ccc2c(c1)[C@@H]1C[C@@H](CC(=O)N3CCc4ccccc4C3)O[C@@H](CO)[C@@H]1O2)c1ccc2c(c1)OCO2`: in assay [11], the concentration at half-maximal activity (AC50) is 13 µM (active).
On to `Cc1nc(N2[C@H](CO)[C@H](c3ccccc3)[C@H]2CNCC2CCCC2)sc1C`, for which the AC50 is 2.26 µM (active) in assay [9]; > 39 µM (inactive) in assay [10]; 1.4 µM (active) in [12]; 1.42 µM (active) in [13]; 1.12 µM (active) in [14].
For the molecule `COc1ccccc1NC(=O)N1C[C@@H]2N[C@H](C1)[C@H]2c1ccc(/C=C/c2ccccc2)cc1`, the AC50 in [9] is 3.04 µM (active); in assay [11], 4.56 µM (active).
Regarding `N#Cc1cccc(-c2ccc([C@@H]3[C@@H]4CN(Cc5ccccc5)C[C@H]3N4)cc2)c1`, the AC50 is 5.57 µM (active) in assay [9] and 15.4 µM (active) in [10].
In the same order, the values of `C[C@H](CO)N1C[C@H](C)[C@H](CN(C)Cc2ccc(-c3ccccc3)cc2)OCc2ccccc2-c2ccccc2C1=O` are 5.19 µM (active) and > 39 µM (inactive).
Take `O=C(Nc1ccc(Cl)cc1)N1C[C@@H]2[C@H](c3ccccc31)[C@@H](CO)N2CC1CCCCC1`: the concentration at half-maximal activity (AC50) in assay [11] is 5.79 µM (active).
Turning to `Cc1cccc(-c2ccc([C@H]3[C@@H](CO)N4CCCCN(CCC(F)(F)F)C[C@H]34)cc2)c1`, the AC50 in assay [9] is 1.01 µM (active); in [10], 8.62 µM (active).
As to `CO[C@H]1CN(C)C(=O)c2cc(NC(=O)c3cccc(F)c3)ccc2OC[C@H](C)N(C)C[C@H]1C`, the half-maximal activity concentration (AC50) in [11] is 22.8 µM (active).
As for `O=C(c1ccc2c(c1)OCO2)N1C[C@@H]2N[C@H](C1)[C@@H]2c1ccc(/C=C/c2ccccc2)cc1`, the AC50 is 4.03 µM (active) in [9] and 11.5 µM (active) in [10].

By IC50 is commonly meant the point on the concentration scale where inhibition reaches its midpoint. The term AC50 denotes the concentration at which the activity in the assay is half-maximal.
